Measurements reported in PMC10296094, “K-Ras Binds Calmodulin-Related Centrin1 with Potential Implications for K-Ras Driven Cancer Cell Stemness” (Cancers, 2023).
Like-named read-outs stand apart in the source and are kept apart here.

Key:
centrin1 = biological target: T1, centrin1 (Homo sapiens, UniProt Q12798); assay: Fluorescence anisotropy competition: displacement of F-Sfi1 from centrin1 by CaM inhibitors; type: binding
T1 sequence (Q12798 1-172): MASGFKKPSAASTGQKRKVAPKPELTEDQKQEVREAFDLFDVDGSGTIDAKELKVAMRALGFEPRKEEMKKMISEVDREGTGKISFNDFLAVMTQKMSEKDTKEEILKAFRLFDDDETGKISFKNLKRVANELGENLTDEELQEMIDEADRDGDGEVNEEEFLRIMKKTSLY
Description: The Sfi1 peptide was derived from 670-REVAA-RESQH-NRQLL-RGALR-RWK-692 of human Sfi1 and the fluorescein was attached to the native C-terminal Lys. Sfi1 peptide titration was performed in a buffer composed of 10 mM HEPES pH 7.4, 100 mM CaCl2, and 0.005% v/v Tween 20. For binding, to a 2-fold dilution series of centrin1, 100 nM of Sfi1 peptide was added, and the reaction mix was incubated for 45 min at RT before anisotropy measurements. For measuring the IC50 of inhibitors to centrin1, to the 3-fold dilution series of inhibitors in the assay buffer, a complex of 100 nM fluorescein labelled Sfi1 peptide and 250 nM His-centrin1 was added in 20 µL volume in a 384-well plate. The fluorescence anisotropy was measured after overnight incubation at RT.
The fluorescence anisotropy was measured on a Clariostar (BMG Labtech, Ortenberg, Germany) plate reader using the fluorescence intensity signal recorded from vertical (Iv)- and horizontal (Ih)-polarised light using a fluorescence polarisation module (λexcitation 482 ± 8 nm and λemission 530 ± 20 nm). Fluorescence anisotropy was calculated from the measured fluorescence intensities according to r=Iv−GλIh/Iv+2GλIh, where r is the fluorescence anisotropy value and Iv and Ih are the fluorescence emission intensities detected with vertical and horizontal polarisation, respectively. The instrument specific correction factor G(λ) was set to 1 and not determined further. A quadratic equation as described by others was defined in Prism (GraphPad, version 9.5.1, La Jolla, CA, USA) and was used to determine the KD value of the fluorescein tagged peptides to target protein. y=Af+Ab−Af∗(Lt+KD+x−Lt+KD+x^2−4∗Lt∗x/2Lt
The IC50 value of inhibitors was determined by plotting the log concentration of inhibitor against fluorescence anisotropy values and fitting the data to log inhibitor vs. response—variable slope (four parameters) equation in Prism (GraphPad).

CaM = settings: F-PMCA peptide as probe; read-out: CaM Kd (References); cited from earlier work
K-RasG12V/centrin1 = biological target: T2, K-RasG12V/centrin1 (Homo sapiens, UniProt Q12798); assay: Cellular BRET Rluc8-K-RasG12V/GFP2-centrin1 in HEK293-ebna cells; type: cell-based; settings: for effect on BRETtop of K-RasG12V/centrin1: ophiobolin A 2.5 µM, calmidazolium 10 µM, calmirasone1 20 µM, 24 h, n = 3
T2 construct: expressed in transfected cells; host or cells: HEK293-ebna
T2 sequence (Q12798 1-172): T1 sequence (Q12798 1-172)
Description: Briefly, ~200,000 HEK293-ebna cells were seeded per well of a 12-well plate (cat. no. 665180, Greiner Bio-One, Vivoorde, Belgium) and grown in 1 mL of complete DMEM. The next day, ~1 µg of BRET sensor plasmids was transfected using 2.5 µL of jetPRIME. The concentration of donor plasmid was 25 ng, and that of the acceptor plasmid had increased from 25 ng to 1000 ng for titration curves. Cells were treated with inhibitors or vehicle control (DMSO at 0.2% v/v) 24 h after transfection. Cells were collected the following day in PBS and plated in white, flat bottom 96-well plates (cat. no. 236108, Nunc, Thermo Fisher Scientific). BRET measurements were performed on a Clariostar plate reader (BMG Labtech). Three channels were read. The first channel was First, GFP2-fluorescence (λexcitation 405 ± 10 nm and λemission 515 ± 10 nm), which is directly proportional to the acceptor concentration (RFU). Second, the channel was read after adding coelenterazine 400a (cat. no. C-320, GoldBio, Saint Louis, MO, USA; at 10 μM final concentration) BRET-channel (515 ± 15 nm) readings in well-mode, and then again (third) with the luminescence channel (410 ± 40 nm), and recordings were made. Signals corresponded to the BRET signal and donor (RLU) signals. The ratio of BRET signal/RLU gave the raw BRET ratio. The final BRET ratio (BRET in plots) was obtained by subtracting the raw BRET ratio from the background raw BRET ratio of cells expressing only the donor. The relative expression is calculated as the ratio of RFU/RLU and denoted as [Acceptor]/[Donor]. […]
For dose response analysis of inhibitors, on day one, ~200,000 HEK293-ebna cells were seeded per well of a 12-well plate (cat. No. 665180, Greiner Bio-One, Vivoorde, Belgium) and grown in complete DMEM. […] The log inhibitor vs BRET ratio was plotted, and the data were fitted by a log (inhibitor) vs. response variable slope (four parameters) equation of Prism, and the IC50 values were calculated.

K-Ras/CaM = assay: Cellular BRET donor saturation titration Rluc8-K-Ras/GFP2-CaM in HEK293-ebna cells; type: cell-based, human; settings: 10 µM mevastatin, 24 h
Description: (§1) The detailed method of our BRET assay can be found in [9, 43]. Briefly, ~200,000 HEK293-ebna cells were seeded per well of a 12-well plate (cat. no. 665180, Greiner Bio-One, Vivoorde, Belgium) and grown in 1 mL of complete DMEM. The next day, ~1 µg of BRET sensor plasmids was transfected using 2.5 µL of jetPRIME. The concentration of donor plasmid was 25 ng, and that of the acceptor plasmid had increased from 25 ng to 1000 ng for titration curves. Cells were treated with inhibitors or vehicle control (DMSO at 0.2% v/v) 24 h after transfection. Cells were collected the following day in PBS and plated in white, flat bottom 96-well plates (cat. no. 236108, Nunc, Thermo Fisher Scientific). BRET measurements were performed on a Clariostar plate reader (BMG Labtech). Three channels were read. The first channel was First, GFP2-fluorescence (λexcitation 405 ± 10 nm and λemission 515 ± 10 nm), which is directly proportional to the acceptor concentration (RFU). Second, the channel was read after adding coelenterazine 400a (cat. no. C-320, GoldBio, Saint Louis, MO, USA; at 10 μM final concentration) BRET-channel (515 ± 15 nm) readings in well-mode, and then again (third) with the luminescence channel (410 ± 40 nm), and recordings were made. Signals corresponded to the BRET signal and donor (RLU) signals. […] The relative expression is calculated as the ratio of RFU/RLU and denoted as [Acceptor]/[Donor]. […]

CTK/CaM = assay: Cellular BRET donor saturation titration Rluc8-CTK/GFP2-CaM in HEK293-ebna cells; type: cell-based, human; settings: 10 µM mevastatin, 24 h
Description: as §1

CTK/centrin1 = assay: Cellular BRET donor saturation titration Rluc8-CTK/GFP2-centrin1 in HEK293-ebna cells; type: cell-based, human; settings: 10 µM mevastatin, 24 h
Description: as §1

K-Ras/centrin1 = assay: Cellular BRET donor saturation titration Rluc8-K-Ras/GFP2-centrin1 in HEK293-ebna cells; type: cell-based, human; settings: 10 µM mevastatin, 24 h
Description: as §1

[1] = 100 nM F-Sfi1 and 250 nM His-centrin1, overnight at RT, Kd converted from IC50, read-out: Centrin1 Mean Kd (Repeat Values)

In the case of `NCCCCCCNS(=O)(=O)c1cccc2c(Cl)cccc12` [W-7], the Kd (centrin1; [1]) is listed as 18.2 µM and the Kd (CaM) is listed as 1.47 µM.

With `Clc1ccc(C(c2ccc(Cl)cc2)n2cc[n+](CC(OCc3ccc(Cl)cc3Cl)c3ccc(Cl)cc3Cl)c2)cc1` (centres unmarked) [calmidazolium, calmidazolium chloride] the Kd (centrin1; [1]) was 1.6 µM, the IC50 (K-RasG12V/centrin1; HEK293-ebna, donor/acceptor plasmid ratio 1/19, 24 h treatment, n = 2, read-out: IC50, inhibition of K-RasG12V/centrin1 BRET interaction) was 10.44 ± 0.05 µM and the “effect on BRETtop of K-RasG12V/centrin1” value (K-RasG12V/centrin1) was “lowered”. The Kd (CaM) was 0.0135 µM.

In the case of `CC[C@H](C)C(=O)O[C@H]1CCC=C2C=C[C@H](C)[C@H](CC[C@@H]3C[C@@H](O)CC(=O)O3)[C@H]21` [mevastatin], the “effect on BRET-levels of K-Ras with CaM” value (K-Ras/CaM) is reported as “did not significantly affect”, the “BRETtop (K-Ras + CaM)” value (K-Ras/CaM; n = 3) is reported as 0.097 ± 0.005 and the “effect on BRET of CTK with CaM” value (CTK/CaM) is reported as “did not decrease”. The “BRETtop (CTK + CaM)” value (CTK/CaM; n = 3) was 0.063 ± 0.004, the “effect on BRET of CTK with centrin1” value (CTK/centrin1) was “did not decrease” and the “BRETtop (CTK + centrin1)” value (CTK/centrin1; n = 3) was 0.061 ± 0.003. The “effect on BRET-levels of K-Ras with centrin1” value (K-Ras/centrin1) was “did not significantly affect” and the “BRETtop (K-Ras + centrin1)” value (K-Ras/centrin1; n = 3) was 0.078 ± 0.005.

In the case of `CC(C)=C[C@H]1C[C@H](C)[C@]2(CC[C@]3(C)C[C@H]4[C@H](C(=O)C[C@@]4(C)O)/C(C=O)=C\C[C@H]32)O1` [ophiobolin A], the Kd (centrin1) is given as 49 µM, the “effect on BRETtop of K-RasG12V/centrin1” value (K-RasG12V/centrin1) is given as “lowered” and the Kd (CaM) is given as 3.5 µM.
